One test deals with PI3Kα (Homo sapiens, UniProt P42336). Description: PI3K Biochemical Assays (ATP consumption, luciferase-luciferin chemiluminescence). Conditions: PI3Kα 1.5 nM, ATP 1 μM, PIP2 10 μM; percent of ATP consumed. On the procedure:
PI3Kα activity is measured as the percent of ATP consumed following the kinase reaction using luciferase-luciferin-coupled chemiluminescence. Reactions were conducted in 384-well white, medium binding microtiter plates (Greiner). Kinase reactions were initiated by combining test compounds, ATP, substrate (PIP2), and kinase in a 20 μL volume in a buffer solution. The standard PI3Kalpha assay buffer is composed 50 mM Tris, pH 7.5, 1 mM EGTA, 10 mM MgCl2, 1 mM DTT and 0.03% CHAPS. The standard assay concentrations for enzyme, ATP, and substrate are 1.5 nM, 1 μM, and 10 μM, respectively. The reaction mixture was incubated at ambient temperature for approximately 2 h. Following the kinase reaction, a 10 μL aliquot of luciferase-luciferin mix (Promega Kinase-Glo) was added and the chemiluminescence signal measured using a Victor2 plate reader (Perkin Elmer). Total ATP consumption was limited to 40-60% and IC50 values of control compounds correlate well with literature references. Substituting PI3Kα with PI3KIβ, […], or […], the inhibitory activity of the compounds for the other isoforms of I3K were measured.

A further test concerns the target mTORC1 (mTOR/GbL/Raptor) (Homo sapiens, UniProt P42345). Description: mTOR/GbL/Raptor (mTORC1) ELISA Assay. Conditions: 0.2 nM mTORC1, 10 μM ATP, 50 nM NHis-tagged 4E-BP1; phosphorylation of 4E-BP1; read-out: IC50. The class given is biochemical. On the procedure:
mTOR/GbL/Raptor (mTORC1) ELISA Assay
The measurement of mTORC1 enzyme activity was performed in an ELISA assay format following the phosphorylation of 4E-BP1 protein. All experiments were performed in the 384-well format. Generally, 0.5 μL DMSO containing varying concentrations of the test compound was mixed with 15 μL enzyme solution. Kinase reactions were initiated with the addition of 15 μL of substrates-containing solution. The assay conditions were as follows; 0.2 nM mTORC1, 10 μM ATP and 50 nM NHis-tagged 4E-BP1 in 20 mM Hepes, pH 7.2, 1 mM DTT, 50 mM NaCl, 10 mM MnCl2, 0.02 mg/mL BSA, 0.01% CHAPS, 50 mM β-glycerophosphate. Following an incubation of 120 minutes at ambient temperature, 20 μL of the reaction volume was transferred to a Ni-Chelate-coated 384-well plate. The binding step of the 4E-BP1 protein proceeded for 60 minutes, followed by washing 4 times each with 50 μL of Tris-buffered saline solution (TBS). Anti-phospho-4E-BP1 rabbit-IgG (20 μL, 1:5000) in 5% BSA-TBST (0.2% Tween-20 in TBS) was added and further incubated for 60 minutes. Incubation with a secondary HRP-tagged anti-IgG was similarly performed after washing off the primary antibody (4 washes of 50 μL). Following the final wash step with TBST, 20 μL of SuperSignal ELISA Femto (Pierce Biotechnology) was added and the luminescence measured using an EnVision plate reader.
(In general: In an ELISA, binding on a coated surface is turned into a signal by an enzyme label.)

Structures are written as SMILES. Values joined by “and” are separate entries in the source; they are usually repeats but may differ in a detail not shown here. Identical values can stand only once.

21 molecules from patent publication US8637499B2, “Benzoxazepines as inhibitors of PI3K/mTOR and methods of their use and manufacture” (Exelixis, Inc., priority 2009, dated 2014) can be followed below.

Chain of PI3Kα (P42336 whole entry): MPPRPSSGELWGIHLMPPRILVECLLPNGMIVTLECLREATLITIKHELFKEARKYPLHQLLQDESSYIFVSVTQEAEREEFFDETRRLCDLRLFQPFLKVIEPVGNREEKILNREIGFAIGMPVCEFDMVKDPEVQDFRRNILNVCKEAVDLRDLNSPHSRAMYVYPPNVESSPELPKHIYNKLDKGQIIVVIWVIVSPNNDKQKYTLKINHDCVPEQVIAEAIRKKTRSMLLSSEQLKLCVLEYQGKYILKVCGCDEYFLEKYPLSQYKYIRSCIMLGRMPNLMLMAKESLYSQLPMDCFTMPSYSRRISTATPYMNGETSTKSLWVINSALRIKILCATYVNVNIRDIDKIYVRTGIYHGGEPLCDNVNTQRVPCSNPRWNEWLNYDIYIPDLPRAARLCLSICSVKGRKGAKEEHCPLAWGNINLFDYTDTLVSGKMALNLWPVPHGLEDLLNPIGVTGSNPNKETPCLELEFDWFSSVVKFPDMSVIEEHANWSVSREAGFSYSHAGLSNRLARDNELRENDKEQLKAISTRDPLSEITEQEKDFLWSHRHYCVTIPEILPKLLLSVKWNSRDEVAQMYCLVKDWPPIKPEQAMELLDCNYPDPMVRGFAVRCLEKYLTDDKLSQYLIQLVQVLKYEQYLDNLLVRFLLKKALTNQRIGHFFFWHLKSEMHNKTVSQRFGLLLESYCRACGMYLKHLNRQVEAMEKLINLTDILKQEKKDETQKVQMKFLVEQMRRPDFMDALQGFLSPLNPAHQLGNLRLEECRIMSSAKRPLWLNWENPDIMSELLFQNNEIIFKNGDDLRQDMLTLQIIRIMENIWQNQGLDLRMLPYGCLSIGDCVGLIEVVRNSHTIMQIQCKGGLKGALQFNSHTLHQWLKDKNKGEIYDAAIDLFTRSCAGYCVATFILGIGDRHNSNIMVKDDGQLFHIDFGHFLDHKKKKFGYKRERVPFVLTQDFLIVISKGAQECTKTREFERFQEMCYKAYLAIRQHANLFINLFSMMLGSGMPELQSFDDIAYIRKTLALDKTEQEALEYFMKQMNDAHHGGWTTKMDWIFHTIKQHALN
Chain of PI3Kα (P27986 whole entry partner): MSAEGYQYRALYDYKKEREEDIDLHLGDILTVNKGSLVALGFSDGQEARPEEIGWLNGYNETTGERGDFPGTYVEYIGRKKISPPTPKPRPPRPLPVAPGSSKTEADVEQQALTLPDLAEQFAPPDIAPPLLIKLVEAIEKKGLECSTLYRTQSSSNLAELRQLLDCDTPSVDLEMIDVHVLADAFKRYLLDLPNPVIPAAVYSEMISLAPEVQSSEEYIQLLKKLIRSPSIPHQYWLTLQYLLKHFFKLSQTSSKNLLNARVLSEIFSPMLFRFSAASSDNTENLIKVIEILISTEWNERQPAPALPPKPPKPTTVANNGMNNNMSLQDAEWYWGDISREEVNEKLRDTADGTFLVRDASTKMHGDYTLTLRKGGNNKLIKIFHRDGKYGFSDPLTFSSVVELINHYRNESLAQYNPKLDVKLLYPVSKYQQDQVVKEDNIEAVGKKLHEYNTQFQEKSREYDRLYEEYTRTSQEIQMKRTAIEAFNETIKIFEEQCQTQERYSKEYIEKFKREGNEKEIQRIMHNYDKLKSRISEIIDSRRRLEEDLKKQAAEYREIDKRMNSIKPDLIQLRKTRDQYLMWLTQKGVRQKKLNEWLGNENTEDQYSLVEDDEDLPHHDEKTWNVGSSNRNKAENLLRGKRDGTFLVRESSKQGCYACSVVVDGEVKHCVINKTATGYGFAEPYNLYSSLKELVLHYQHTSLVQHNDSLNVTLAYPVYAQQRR

As a reminder, the IC50 is the concentration at which inhibition is half-maximal. For `Cc1nc2ccc(-c3ccc4c(c3)CN(C(=O)N3CCCCC3c3ccc(N(C)C)cc3)CCO4)cc2[nH]1` (stereo not shown) [Compound 131, N,N-dimethyl-4-(1-{[7-(2-methyl-1H-benzimidazol-6-yl)-2,3-dihydro-1,4-benzoxazepin-4(5H)-yl]carbonyl}piperidin-2-yl)aniline], the figures for the IC50 against PI3Kα and on mTORC1 (mTOR/GbL/Raptor) were 1000 to 3000 nM and 700 to 2600 nM, respectively.

As to `Cc1nc2ccc(-c3ccc4c(c3)CN(C(=O)N3CCCCC3c3ccc(F)c(Cl)c3)CCO4)cc2[nH]1` (stereo not shown) [Compound 128, 4-{[2-(3-chloro-4-fluorophenyl)piperidin-1-yl]carbonyl}-7-(2-methyl-1H-benzimidazol-6-yl)-2,3,4,5-tetrahydro-1,4-benzoxazepine], the IC50 on PI3Kα is 75 to 200 nM; on mTORC1 (mTOR/GbL/Raptor), at most 50 nM. In the same order, the values of `Cc1nc2ccc(-c3ccc4c(c3)CN(C(=O)N3CC[C@H](O)C[C@@H]3c3ccc(F)c(F)c3)CCO4)cc2[nH]1` (racemic) [Compound 140, (±)-(2R,4S)-2-(3,4-difluorophenyl)-1-{[7-(2-methyl-1H-benzimidazol-6-yl)-2,3-dihydro-1,4-benzoxazepin-4(5H)-yl]carbonyl}piperidin-4-ol] are 200 to 500 nM and 50 to 250 nM. As for `COC(=O)Nc1nc2ccc(-c3ccc4c(c3)CN(C(=O)N3CCC(C)CC3)CCO4)cc2[nH]1` [Compound 2, methyl (6-{4-[(4-methylpiperidin-1-yl)carbonyl]-2,3,4,5-tetrahydro-1,4-benzoxazepin-7-yl}-1H-benzimidazol-2-yl)carbamate], the IC50 lay in the range of 200 to 500 nM against PI3Kα and 50 to 250 nM at mTORC1 (mTOR/GbL/Raptor). In the same order, the values of `COC(=O)Nc1nc2ncc(-c3ccc4c(c3)CN(C(=O)N3CCC(C)CC3)CCO4)cc2[nH]1` [Compound 41, methyl (6-{4-[(4-methylpiperidin-1-yl)carbonyl]-2,3,4,5-tetrahydro-1,4-benzoxazepin-7-yl}-1H-imidazo[4,5-b]pyridin-2-yl)carbamate] are at most 75 nM and at most 50 nM. In the same order, the values of `CC1(O)CCN(C(=O)N2CCOc3ccc(-c4ccc5nc(N)[nH]c5c4)cc3C2)CC1` [Compound 23, 1-{[7-(2-amino-1H-benzimidazol-6-yl)-2,3-dihydro-1,4-benzoxazepin-4(5H)-yl]carbonyl}-4-methylpiperidin-4-ol] are 75 to 200 nM and at most 50 nM. In the case of `N#CC1CCN(C(=O)N2CCOc3ccc(-c4cnc5nc(N)[nH]c5c4)cc3C2)CC1` [Compound 46, 1-{[7-(2-amino-1H-imidazo[4,5-b]pyridin-6-yl)-2,3-dihydro-1,4-benzoxazepin-4(5H)-yl]carbonyl}piperidine-4-carbonitrile], the IC50 at PI3Kα was at most 75 nM; at mTORC1 (mTOR/GbL/Raptor), at most 50 nM. In the same order, the values of `O=C1CCN(C(=O)N2CCOc3ccc(-c4ccc5[nH]c(NCCF)nc5c4)cc3C2)C(c2cccc(F)c2)C1` (stereo not shown) [Compound 32, 1-{[7-{2-[(2-fluoroethyl)amino]-1H-benzimidazol-5-yl}-2,3-dihydro-1,4-benzoxazepin-4(5H)-yl]carbonyl}-2-(3-fluorophenyl)piperidin-4-one] are at most 75 nM and at most 50 nM. In the same order, the values of `Cc1nc2ccc(-c3ccc4c(c3)CN(C(=O)N3CCCCC3c3ccc(C)c(F)c3)CCO4)cc2[nH]1` (stereo not shown) [Compound 123, 4-{[2-(3-fluoro-4-methylphenyl)piperidin-1-yl]carbonyl}-7-(2-methyl-1H-benzimidazol-6-yl)-2,3,4,5-tetrahydro-1,4-benzoxazepine] are 75 to 200 nM and at most 50 nM.

For `CCOC(=O)C1CCCCN1C(=O)N1CCOc2ccc(-c3ccc4nc(C)[nH]c4c3)cc2C1` (stereo not shown) [Compound 75, ethyl 1-{[7-(2-methyl-1H-benzimidazol-6-yl)-2,3-dihydro-1,4-benzoxazepin-4(5H)-yl]carbonyl}piperidine-2-carboxylate], the IC50 on PI3Kα lay in the range of 1000 to 3000 nM; at mTORC1 (mTOR/GbL/Raptor), 700 to 2600 nM. On PI3Kα, `Cc1nc2ccc(-c3ccc4c(c3)CN(C(=O)N3CC[C@H](O)C3)CCO4)cc2[nH]1` [Compound 82, (3S)-1-{[7-(2-methyl-1H-benzimidazol-6-yl)-2,3-dihydro-1,4-benzoxazepin-4(5H)-yl]carbonyl}pyrrolidin-3-ol] came in with an IC50 of 1000 to 3000 nM. With `CC(=O)c1ccc(N2CCN(C(=O)N3CCOc4ccc(-c5ccc6nc(C)[nH]c6c5)cc4C3)CC2)cc1` [Compound 169, 1-[4-(4-{[7-(2-methyl-1H-benzimidazol-6-yl)-2,3-dihydro-1,4-benzoxazepin-4(5H)-yl]carbonyl}piperazin-1-yl)phenyl]ethanone], on PI3Kα, the IC50 is 500 to 1000 nM.

In turn, `Cc1nc2ccc(-c3ccc4c(c3)CN(C(=O)N3CC[S+]([O-])CC3)CCO4)cc2[nH]1` [Compound 101, 7-(2-methyl-1H-benzimidazol-6-yl)-4-[(1-oxidothiomorpholin-4-yl)carbonyl]-2,3,4,5-tetrahydro-1,4-benzoxazepine] came in with an IC50 against PI3Kα of 1000 to 3000 nM. For `Cc1nc2ccc(-c3ccc4c(c3)CN(C(=O)N3CCN(C(=O)c5ccco5)CC3)CCO4)cc2[nH]1` [Compound 158, 4-{[4-(furan-2-ylcarbonyl)piperazin-1-yl]carbonyl}-7-(2-methyl-1H-benzimidazol-6-yl)-2,3,4,5-tetrahydro-1,4-benzoxazepine], the IC50 at PI3Kα is 1000 to 3000 nM. For `CC1CCN(C(=O)N2CCOc3ccc(-c4cc(NCc5ccccc5)[nH]n4)cc3C2)CC1` [Compound 9, 3-{4-[(4-methylpiperidin-1-yl)carbonyl]-2,3,4,5-tetrahydro-1,4-benzoxazepin-7-yl}-N-(phenylmethyl)-1H-pyrazol-5-amine], the IC50 at PI3Kα lay in the range of 1000 to 3000 nM. On the same count and under the same terms, the same measure for `Cc1nc2ccc(-c3ccc4c(c3)CN(C(=O)N3CCCC3)CCO4)cc2[nH]1` [Compound 87, 7-(2-methyl-1H-benzimidazol-6-yl)-4-(pyrrolidin-1-ylcarbonyl)-2,3,4,5-tetrahydro-1,4-benzoxazepine]: 500 to 1000 nM; for `Cc1nc2ccc(-c3ccc4c(c3)CN(C(=O)N3CCOCC3)CCO4)cc2[nH]1` [Compound 132, 7-(2-methyl-1H-benzimidazol-6-yl)-4-(morpholin-4-ylcarbonyl)-2,3,4,5-tetrahydro-1,4-benzoxazepine]: 500 to 1000 nM. For the molecule `Cc1nc2ccc(-c3ccc4c(c3)CN(C(=O)N3CCC(C5CCNCC5)CC3)CCO4)cc2[nH]1` [Compound 71, 1-{[7-(2-methyl-1H-benzimidazol-6-yl)-2,3-dihydro-1,4-benzoxazepin-4(5H)-yl]carbonyl}-4,4-bipiperidine], on PI3Kα, the IC50 is 200 to 500 nM and 500 to 1000 nM. For the molecule `Cc1nc2ccc(-c3ccc4c(c3)CN(C(=O)N3CCN(c5ccc([N+](=O)[O-])cc5)CC3)CCO4)cc2[nH]1` [Compound 168, 7-(2-methyl-1H-benzimidazol-6-yl)-4-{[4-(4-nitrophenyl)piperazin-1-yl]carbonyl}-2,3,4,5-tetrahydro-1,4-benzoxazepine], the IC50 against PI3Kα lay within 200 to 500 nM. On to `Cc1nc2ccc(-c3ccc4c(c3)CN(C(=O)N3CCN(C)CC3c3ccccc3)CCO4)cc2[nH]1` (stereo not shown) [Compound 144, 7-(2-methyl-1H-benzimidazol-6-yl)-4-[(4-methyl-2-phenylpiperazin-1-yl)carbonyl]-2,3,4,5-tetrahydro-1,4-benzoxazepine], for which the IC50 at PI3Kα lay within 1000 to 3000 nM. Still for that read-out and setting: for `Cc1nc2ccc(-c3ccc4c(c3)CN(C(=O)N3[C@@H]5CC[C@H]3C[C@@H](CO)C5)CCO4)cc2[nH]1` [Compound 112, (8-{[7-(2-methyl-1H-benzimidazol-6-yl)-2,3-dihydro-1,4-benzoxazepin-4(5H)-yl]carbonyl}-8-azabicyclo[3.2.1]oct-3-(endo)-yl)methanol] the value was 200 to 500 nM.
